In patent publication US9301961B2, “Autoimmune and inflammatory disorder therapy” (Katholieke Universiteit Leuven, K.U. Leuven R&D, priority 2011, dated 2016):

What was measured:
YSK4 = biological target: T1, YSK4 (Homo sapiens, UniProt Q56UN5); assay: Kinase-tagged phage competition binding assay (qPCR), 382-kinase library
T1 construct: made in house; host or cells: E. coli BL21-derived host (T7 phage) or HEK-293
T1 sequence (Q56UN5 1-1328): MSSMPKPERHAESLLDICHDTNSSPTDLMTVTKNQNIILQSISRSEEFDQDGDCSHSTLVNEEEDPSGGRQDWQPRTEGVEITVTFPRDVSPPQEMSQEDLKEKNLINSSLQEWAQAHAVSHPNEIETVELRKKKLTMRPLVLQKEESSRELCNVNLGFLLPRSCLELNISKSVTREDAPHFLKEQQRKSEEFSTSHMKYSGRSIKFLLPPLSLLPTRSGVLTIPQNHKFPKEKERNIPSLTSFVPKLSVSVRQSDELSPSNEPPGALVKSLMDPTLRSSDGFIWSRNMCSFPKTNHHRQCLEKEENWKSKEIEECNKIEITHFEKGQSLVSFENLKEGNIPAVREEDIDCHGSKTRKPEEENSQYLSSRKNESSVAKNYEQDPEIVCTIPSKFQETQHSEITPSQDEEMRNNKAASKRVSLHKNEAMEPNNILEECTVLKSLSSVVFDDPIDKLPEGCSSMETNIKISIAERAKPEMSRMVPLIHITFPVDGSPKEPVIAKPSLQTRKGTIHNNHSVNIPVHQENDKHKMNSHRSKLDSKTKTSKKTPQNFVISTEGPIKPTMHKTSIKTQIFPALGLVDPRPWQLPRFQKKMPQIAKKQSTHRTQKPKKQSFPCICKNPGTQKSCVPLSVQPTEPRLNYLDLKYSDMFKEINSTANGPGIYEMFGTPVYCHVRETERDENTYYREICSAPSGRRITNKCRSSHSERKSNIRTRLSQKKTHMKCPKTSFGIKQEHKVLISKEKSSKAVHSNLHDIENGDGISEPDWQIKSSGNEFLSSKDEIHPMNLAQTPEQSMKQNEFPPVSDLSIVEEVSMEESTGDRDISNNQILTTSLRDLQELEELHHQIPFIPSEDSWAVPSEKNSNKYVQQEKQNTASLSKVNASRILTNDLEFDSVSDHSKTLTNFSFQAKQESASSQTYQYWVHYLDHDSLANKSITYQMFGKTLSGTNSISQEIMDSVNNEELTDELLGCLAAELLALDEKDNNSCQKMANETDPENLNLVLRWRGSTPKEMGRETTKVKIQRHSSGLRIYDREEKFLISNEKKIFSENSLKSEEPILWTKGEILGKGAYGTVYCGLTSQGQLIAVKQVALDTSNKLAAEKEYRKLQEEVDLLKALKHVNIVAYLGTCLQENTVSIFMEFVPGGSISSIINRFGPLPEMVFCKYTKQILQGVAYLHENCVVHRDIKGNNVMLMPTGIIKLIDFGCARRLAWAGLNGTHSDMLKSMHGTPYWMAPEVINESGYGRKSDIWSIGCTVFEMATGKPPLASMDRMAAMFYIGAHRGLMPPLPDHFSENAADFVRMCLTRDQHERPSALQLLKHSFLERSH

PAK1 = biological target: T2, PAK1 (Homo sapiens, UniProt Q13153); assay: Commercial kinase activity assay (Invitrogen, fluorescence); assay type: biochemical; conditions: 10 μM test compound
T2 construct: made in house; host or cells: E. coli BL21-derived host (T7 phage) or HEK-293
T2 sequence (Q13153 whole entry): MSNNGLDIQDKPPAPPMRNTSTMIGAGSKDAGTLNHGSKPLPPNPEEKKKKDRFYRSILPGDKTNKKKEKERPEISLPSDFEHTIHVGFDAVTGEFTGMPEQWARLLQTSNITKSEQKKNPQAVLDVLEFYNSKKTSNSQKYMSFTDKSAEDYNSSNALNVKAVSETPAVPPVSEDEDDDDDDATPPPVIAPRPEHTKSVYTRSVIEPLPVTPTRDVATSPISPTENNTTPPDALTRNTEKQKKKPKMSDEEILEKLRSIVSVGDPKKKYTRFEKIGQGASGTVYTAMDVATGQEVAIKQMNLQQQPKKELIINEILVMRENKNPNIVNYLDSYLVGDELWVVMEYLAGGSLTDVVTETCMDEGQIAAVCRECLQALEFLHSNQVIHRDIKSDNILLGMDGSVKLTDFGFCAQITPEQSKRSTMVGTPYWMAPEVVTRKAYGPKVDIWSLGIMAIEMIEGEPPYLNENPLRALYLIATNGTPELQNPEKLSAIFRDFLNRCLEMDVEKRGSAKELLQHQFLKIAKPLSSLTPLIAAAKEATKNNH

[1] = tested on: cardiac allograft rejection; assay: Cardiac allograft transplantation model, treatment day -1 to day 30 (Examples 7 and 8); assay type: in vivo, mice (C57BL/6 donor, Balb/c recipient); conditions: Example 7
Method: Inbreed C57BL/6 H-2b and Balb/c H-2d female mice, 8-10 weeks old, 20-25 g, were used as donor and recipient, respectively. Heterotopic heart transplantation was performed by implanting the donor heart on the neck of recipients using conventional microsurgery techniques. Graft beating was checked daily by inspection and palpation. Cessation of beating indicated graft rejection, which was confirmed by histological examination. Housing and all experimental animal procedures were approved by the Institutional Animal Care and Research Advisory Committee of the KU Leuven.

`Nc1nc(N2CCN(C(=O)COc3ccc(Cl)cc3)CC2)c2nc(-c3cccnc3)sc2n1` [formula (1), 5-amino-7-[4-(4-chlorophenoxyacetyl)piperazin-1-yl]-2-(pyridin-3-yl)thiazolo[5,4-d]pyrimidine] was tested. Which inhibition at 10 µM (YSK4; 10 μM compound, read-out: % Inhibition of substrate binding) did it give?
The inhibition at 10 µM was 79%.

And the IC50 (YSK4; stated for the 8 kinases of Table 1)?
The IC50 was < 10 µM.

What about the Kinase activity (PAK1) of the same compound?
The Kinase activity was 115 percentage of control.

What about the “grafts surviving as long as treatment continued” value ([1]; 40 mg/kg daily gavage) of the same compound?
The value was 3 out of 4.

And the “graft function after withdrawal of the treatment” value ([1]; 40 mg/kg daily gavage until day 30)?
The value was “continued beating after withdrawal of the treatment (up to 60 days)”.
